Patent publication US20120202885A1, “METHODS, ASSAYS AND COMPOSITIONS FOR TREATING RETINOL-RELATED DISEASES” (ReVision Therapeutics, Inc., priority 2004, published 2012)

How the values were obtained:
[1] = system: abca4 null mutant mouse; assay: 14-day HPR dose response on serum retinol (LC/MS of serum extract); type: in vivo, mice; conditions: DMSO, 10 or 20 mg/kg HPR, 14 days
Protocol: (§1) Initial studies began by examining the effect of HPR on serum retinol. Animals were divided into three groups and given either DMSO, 10 mg/kg HPR, or 20 mg/kg HPR for 14 days. At the end of the study period, blood was collected from the animals, sera were prepared and an acetonitrile extract of the serum was analyzed by reverse phase LC/MS. UV-visible spectral and mass/charge analyses were performed to confirm the identity of the eluted peaks. Sample chromatograms obtained from these analyses are shown: FIG. 7a.—extract from an abca4 null mutant mouse receiving HPR vehicle, DMSO; FIG. 7b.—10 mg/kg HPR; FIG. 7c.—20 mg/kg HPR. […] For 20 mg/kg HPR, serum retinol is decreased 72%, see FIG. 8. The steady state concentrations of retinol and HPR in serum (at 20 mg/kg HPR) were determined to be 2.11 μM and 1.75 μM, respectively.

[2] = as above; type: in vivo, mice; conditions: abca4 null mutant, mouse, serum, intraperitoneal; 20 mg/kg HPR; read-out: steady state concentration of HPR in serum
Protocol: as §1

[3] = target: retinol-RBP-TTR complex (Homo sapiens, UniProt P02753); assay: High-throughput FRET assay for RBP/TTR interaction; type: binding
From the text: Reduction of serum retinol and RBP are correlated with concomitant reductions in toxic lipofuscin fluorophores. Because compounds that affect RBP-TTR interaction will directly affect fluorophore levels in the eye, a high-throughput screen for small molecules which prevent interaction of RBP with TTR was developed. This screen employs probe-labeled forms of RBP and TTR which participate in a unique fluorescence resonance energy transfer (FRET) event when complexed. Compounds which interfere with RBP-TTR interaction prevent FRET. Sample spectra taken during the course of this type of assay are shown, in FIG. 4. […] The sample is incubated at 37° C. for 30 min and then illuminated with 330 nm light. The emission spectra are shown in the range of 400-600 nm. HPR binds to RBP and prevents interaction with TTR, and here this property of HPR is utilized here to validate the ability of this screen to detect inhibition of RBP-TTR interaction. […] Additionally, the design of this assay permits discrimination between compounds which interact with RBP versus those which interact with TTR. Thus, by using two distinct excitation energies (280 nm and 330 nm, for protein and retinol, respectively) and implementing simultaneous monitoring of the retinol and TTR-probe fluorescence, the “target” of a presumptive small molecule can be easily determined.
Accordingly, HPR was employed at varied concentrations (from 0-4 μM), using the conditions specified in Example 7, to evaluate the high throughput assay.
The mechanism of action underlying this effect can be explained by the disruption of RBP-TTR interactions. In order to explore this possibility and to further validate the RBP-TTR screen, the effects of all-trans retinoic and 13-cis retinoic acid, using the conditions the conditions specified for analysis of HPR, were examined.

[4] = target: Retinol Binding Protein (RBP) (Homo sapiens, UniProt P02753); assay: Competition binding assay of HPR against RBP-retinol by fluorescence quenching; conditions: physiological temperature; HPR 2 μM (FIG. 9b)
From the text: Based upon these findings, we sought to further explore the mechanism(s) of retinol reduction during HPR treatment. A tenable hypothesis is that HPR may displace retinol by competing at the retinol binding site on RBP. […] Therefore, one can measure displacement of retinol from the RBP holoprotein by observing decreases in both protein (340 nm) and retinol (470 nm) fluorescence. We performed a competition binding assay using RBP-retinol/HPR concentrations which were similar to those determined from the 14 day trial at 20 mg/kg HPR described above. […] In the control assays, decreases in retinol fluorescence were associated with concomitant increases in protein fluorescence, see FIG. 9a. This effect was determined to be due to temperature effects as the dissociation constant of RBP-retinol increases (decreased affinity) with increased time at 37 C.

## CC1=C(/C=C/C(C)=C/C=C/C(C)=C/C(=O)Nc2ccc(O)cc2)C(C)(C)CCC1 [HPR, N-(4-hydroxyphenyl)retinamide]
[1]
  serum retinol, dose dependence: dose-dependent reduction in serum retinol
[2]
  concentration at 14 days: 1750 nM
[3]; HPR 1 μM, 0.5 μM RBP + 0.5 μM Alexa430-TTR, 37° C. 30 min, 330 nm excitation
  retinol and TTR-probe fluorescence (loss of RBP-TTR complexation): significantly reduced retinol and TTR-probe fluorescence
[3]; varied concentrations 0-4 μM, FIG. 5
  inhibition of retinol-RBP-TTR complex formation: dose dependent inhibition
[4]
  displacement of retinol from the RBP-retinol holoprotein: efficiently displaces retinol
